In the NIST ThermoML archive (doi:10.1016/j.fluid.2008.02.007):
± gives the expanded uncertainty stated by the source.

Conditions: Crystal; visual observation

Structure (SMILES): O=C(O)c1ccccc1[N+](=O)[O-] [2-nitrobenzoic acid]
- Normal melting temperature: 147.7 ± 0.5 °C

Structure (SMILES): O=C(O)c1ccc([N+](=O)[O-])cc1 [4-nitrobenzoic acid]
- Normal melting temperature: 240 ± 0.5 °C
